Data taken from patent US20100120762A1, “Triazine derivatives as inhibitors of phosphodiesterases” (WYETH, priority 2008, published 2010).
Where two headings read alike, the source gives them in different places.

Tests used:
PDE2A (NM002599) = target: T1, PDE2A (NM002599) (Homo sapiens, UniProt O00408); experiment: Inhibition of recombinant PDE2A (expressed in baculovirus/SF21-cells); type: biochemical
T1 construct: made in house; host or cells: baculovirus / SF21 insect cells
Outline: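 Membrane fraction from SF21 cells, assayed in 50 mM Tris-HCl/5 mM MgCl2 (pH 7.4) with 0.5 μM [3H]-cAMP plus 1000 nM cGMP as stimulator; non-specific activity was measured without cGMP. Reaction ran 30 min at 37° C, was stopped with SPA beads and read by scintillation counting. IC50 came from a Hill-plot 2-parameter model.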

PDE10A1 (AB 020593) = target: T2, PDE10A1 (AB 020593) (Homo sapiens, UniProt Q9Y233); experiment: Inhibition of recombinant PDE10A (baculovirus/SF21 system); type: biochemical
T2 construct: made in house; host or cells: baculovirus / SF21 insect cells (gene synthesized by Entelechon GmbH)
T2 sequence (Q9Y233 other isoform, or with tags, fused parts or gaps): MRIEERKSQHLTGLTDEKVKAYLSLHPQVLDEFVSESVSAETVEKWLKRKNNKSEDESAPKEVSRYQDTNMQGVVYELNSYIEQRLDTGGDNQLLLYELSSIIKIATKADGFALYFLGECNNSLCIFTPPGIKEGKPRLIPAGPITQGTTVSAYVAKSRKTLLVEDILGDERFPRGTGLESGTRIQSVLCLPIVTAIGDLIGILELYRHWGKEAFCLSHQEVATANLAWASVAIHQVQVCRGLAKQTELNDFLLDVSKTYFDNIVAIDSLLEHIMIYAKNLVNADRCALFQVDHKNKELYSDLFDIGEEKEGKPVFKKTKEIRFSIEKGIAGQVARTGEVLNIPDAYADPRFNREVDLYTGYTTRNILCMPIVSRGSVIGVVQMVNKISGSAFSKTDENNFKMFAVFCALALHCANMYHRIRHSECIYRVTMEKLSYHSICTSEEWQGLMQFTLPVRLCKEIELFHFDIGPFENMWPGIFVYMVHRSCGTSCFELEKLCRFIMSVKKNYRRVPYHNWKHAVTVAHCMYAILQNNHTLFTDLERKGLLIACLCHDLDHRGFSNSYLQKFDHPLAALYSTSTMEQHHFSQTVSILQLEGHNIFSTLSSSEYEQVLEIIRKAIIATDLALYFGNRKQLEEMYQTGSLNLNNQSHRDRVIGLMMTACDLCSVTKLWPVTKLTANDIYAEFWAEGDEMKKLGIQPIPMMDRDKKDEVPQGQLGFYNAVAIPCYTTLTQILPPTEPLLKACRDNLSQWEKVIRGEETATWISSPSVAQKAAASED
Outline: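 Cytosolic PDE10A1 expressed in SF21 cells via baculovirus, incubated with 0.1 μM [3H]-cAMP in 50 mM Tris-HCl/5 mM MgCl2, pH 7.4, 30 min at 37 °C. SPA-bead scintillation read-out, with enzyme-free wells as background. IC50 from Hill plot, 2-parameter model.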

[1] = recombinant PDE2A, 0.5 μM [3H]-cAMP, 1000 nM cGMP, 37° C., 30 minutes, SPA, read-out: PDE2A IC50
[2] = recombinant cytosolic PDE10A, 0.1 μM [3H]-cAMP, 37° C., 30 minutes, SPA, read-out: PDE10A IC50

T1 sequence (O00408 whole entry): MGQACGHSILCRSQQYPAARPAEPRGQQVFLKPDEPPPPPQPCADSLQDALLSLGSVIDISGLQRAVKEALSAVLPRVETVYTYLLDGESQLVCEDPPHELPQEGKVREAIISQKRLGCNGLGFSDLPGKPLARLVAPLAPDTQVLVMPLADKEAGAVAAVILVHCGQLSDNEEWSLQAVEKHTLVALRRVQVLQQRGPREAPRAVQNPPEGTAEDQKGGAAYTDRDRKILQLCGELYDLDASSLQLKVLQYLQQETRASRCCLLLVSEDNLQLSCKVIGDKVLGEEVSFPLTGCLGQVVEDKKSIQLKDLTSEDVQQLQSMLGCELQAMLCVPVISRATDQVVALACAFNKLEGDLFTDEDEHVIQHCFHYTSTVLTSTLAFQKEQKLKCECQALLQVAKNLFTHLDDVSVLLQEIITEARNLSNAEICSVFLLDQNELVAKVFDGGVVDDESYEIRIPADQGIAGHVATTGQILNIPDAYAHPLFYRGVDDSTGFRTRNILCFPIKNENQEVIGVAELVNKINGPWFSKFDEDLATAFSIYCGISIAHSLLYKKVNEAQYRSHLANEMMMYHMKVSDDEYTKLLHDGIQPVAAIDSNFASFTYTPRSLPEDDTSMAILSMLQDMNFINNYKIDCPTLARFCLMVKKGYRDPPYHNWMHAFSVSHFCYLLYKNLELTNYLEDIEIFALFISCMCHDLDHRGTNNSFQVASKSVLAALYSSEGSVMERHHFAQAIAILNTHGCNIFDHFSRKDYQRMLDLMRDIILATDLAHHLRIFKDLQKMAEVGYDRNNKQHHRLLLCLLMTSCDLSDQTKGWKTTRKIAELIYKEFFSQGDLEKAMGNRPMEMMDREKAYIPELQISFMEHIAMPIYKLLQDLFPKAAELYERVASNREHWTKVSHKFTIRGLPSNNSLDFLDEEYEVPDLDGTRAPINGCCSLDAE

Row | Compound | IC50 (PDE2A (NM002599); [1]) [nM] | IC50 (PDE10A1 (AB 020593); [2]) [nM] | IC50 (PDE2A (NM002599)) [nM] | IC50 (PDE10A1 (AB 020593)) [nM]
1 | COc1ccc2nnc3c(C)nc(-c4ccc5[nH]ccc5c4)n3c2n1 [Example 81, 9-(1H-indol-5-yl)-2-methoxy-7-methylimidazo[5,1-c]pyrido[2,3-e][1,2,4]triazine] |  |  | 186 | 62.6
2 | COc1ccc2nnc3c(C)nc(-c4cc(F)cc(C(N)=O)c4)n3c2n1 [Example 82, 3-fluoro-5-(2-methoxy-7-methylimidazo[5,1-c]pyrido[2,3-e][1,2,4]triazin-9-yl)benzamide] | 279 | 141 |  | 
3 | COc1ccc2nnc3c(C)nc(-c4cc(Cl)cc(Cl)c4Cl)n3c2n1 [Example 85, 2-methoxy-7-methyl-9-(2,3,5-trichlorophenyl)imidazo[5,1-c]pyrido[2,3-e][1,2,4]triazine] | 34.5 | 145 |  | 
4 | COc1ccc2nnc3c(C)nc(-c4c(Cl)cccc4OC)n3c2n1 [Example 86, 9-(2-chloro-6-methoxyphenyl)-2-methoxy-7-methylimidazo[5,1-c]pyrido[2,3-e][1,2,4]triazine] | 12 | 54.5 |  | 
5 | COc1ccc2nnc3c(C)nc(-c4ccc(Cl)cc4Cl)n3c2n1 [Example 88, 9-(2,4-dichlorophenyl)-2-methoxy-7-methylimidazo[5,1-c]pyrido[2,3-e][1,2,4]triazine] | 15.1 | 15 |  | 
6 | COc1ccc2nnc3c(C)nc(-c4cccc(Cl)c4Cl)n3c2n1 [Example 90, 9-(2,3-dichlorophenyl)-2-methoxy-7-methylimidazo[5,1-c]pyrido[2,3-e][1,2,4]triazine] | 49.3 | 41 |  | 
7 | COc1ccc2nnc3c(C)nc(-c4ccc(Cl)c(Cl)c4)n3c2n1 [Example 92, 9-(3,4-dichlorophenyl)-2-methoxy-7-methylimidazo[5,1-c]pyrido[2,3-e][1,2,4]triazine] | 660 | 231 |  | 
8 | COc1ccc2nnc3c(C)nc(-c4cccc(Cl)c4C)n3c2n1 [Example 94, 9-(3-chloro-2-methylphenyl)-2-methoxy-7-methylimidazo[5,1-c]pyrido[2,3-e][1,2,4]triazine] | 89.5 | 69.2 |  | 
9 | COc1ccc2nnc3c(C)nc(-c4ccc(OC)c(Cl)c4)n3c2n1 [Example 95, 9-(3-chloro-4-methoxyphenyl)-2-methoxy-7-methylimidazo[5,1-c]pyrido[2,3-e][1,2,4]triazine] | 772 | > 500 |  | 
10 | COc1ccc2nnc3c(C)nc(-c4ccc(F)c(Cl)c4)n3c2n1 [Example 96, 9-(3-chloro-4-fluorophenyl)-2-methoxy-7-methylimidazo[5,1-c]pyrido[2,3-e][1,2,4]triazine] | 73.7 | 216 |  | 
11 | COc1ccc2nnc3c(C)nc(-c4cc(Cl)ccc4C(F)(F)F)n3c2n1 [Example 99, 9-[5-chloro-2-(trifluoromethyl)phenyl]-2-methoxy-7-methylimidazo[5,1-c]pyrido[2,3-e][1,2,4]triazine] | 79.6 | 732 |  | 
12 | COc1ccc(C)c(-c2nc(C)c3nnc4ccc(OC)nc4n23)c1 [Example 100, 2-methoxy-9-(5-methoxy-2-methylphenyl)-7-methylimidazo[5,1-c]pyrido[2,3-e][1,2,4]triazine] | 5.52 | 55.6 |  | 
13 | COc1ccc2nnc3c(C)nc(-c4ccccc4C(F)(F)F)n3c2n1 [Example 102, 9-[2-(trifluoromethyl)phenyl]-2-methoxy-7-methylimidazo[5,1-c]pyrido[2,3-e][1,2,4]triazine] | 48.6 | 96.8 |  | 
14 | COc1ccnc2c1nnc1c(C)nc(-c3ccncc3C)n12 [Example 114, 4-methoxy-7-methyl-9-(3-methylpyridin-4-yl)imidazo[5,1-c]pyrido[2,3-e][1,2,4]triazine] | 2060 | 10.1 |  | 

Continued, in another order:

Row | IC50 (PDE2A (NM002599); [1]) [nM] | IC50 (PDE10A1 (AB 020593); [2]) [nM] | Compound | IC50 (PDE2A (NM002599)) [nM] | IC50 (PDE10A1 (AB 020593)) [nM]
15 | 523 | 362 | COc1ccc2nnc3c(C)nc(-c4cnn(C)c4)n3c2n1 [Example 79, 2-methoxy-7-methyl-9-(1-methyl-1H-pyrazol-4-yl)imidazo[5,1-c]pyrido[2,3-e][1,2,4]triazine] |  | 
16 | 4070 | 5950 | COc1ccc2nnc3c(C)nc(-c4cncnc4)n3c2n1 [Example 80, 2-methoxy-7-methyl-9-pyrimidin-5-ylimidazo[5,1-c]pyrido[2,3-e][1,2,4]triazine] |  | 
17 | 639 | 233 | COc1ccc2nnc3c(C)nc(-c4ccc(Cl)c(C(N)=O)c4)n3c2n1 [Example 83, 2-chloro-5-(2-methoxy-7-methylimidazo[5,1-c]pyrido[2,3-e][1,2,4]triazin-9-yl)benzamide] |  | 
18 | 423 | 158 | COc1ccc2nnc3c(C)nc(-c4ccc(C(N)=O)c(Cl)c4)n3c2n1 [Example 84, 2-chloro-4-(2-methoxy-7-methylimidazo[5,1-c]pyrido[2,3-e][1,2,4]triazin-9-yl)benzamide] |  | 
19 | 29.8 | 420 | COc1ccc2nnc3c(C)nc(-c4cc(C#N)ccc4Cl)n3c2n1 [Example 87, 4-chloro-3-(2-methoxy-7-methylimidazo[5,1-c]pyrido[2,3-e][1,2,4]triazin-9-yl)benzonitrile] |  | 
20 | 52.6 | 62.8 | COc1ccc(-c2nc(C)c3nnc4ccc(OC)nc4n23)c(Cl)c1 [Example 89, 9-(2-chloro-4-methoxyphenyl)-2-methoxy-7-methylimidazo[5,1-c]pyrido[2,3-e][1,2,4]triazine] |  | 
21 | 17.2 | 11.8 | COc1ccc2nnc3c(C)nc(-c4cccc(F)c4Cl)n3c2n1 [Example 91, 9-(2-chloro-3-fluorophenyl)-2-methoxy-7-methylimidazo[5,1-c]pyrido[2,3-e][1,2,4]triazine] |  | 
22 | 45.8 | 46.8 | COc1ccc2nnc3c(C)nc(-c4cccc(Cl)c4)n3c2n1 [Example 93, 9-(3-chlorophenyl)-2-methoxy-7-methylimidazo[5,1-c]pyrido[2,3-e][1,2,4]triazine] |  | 
23 | 460 | 329 | COc1ccc2nnc3c(C)nc(-c4cc(Cl)cc(Cl)c4)n3c2n1 [Example 97, 9-(3,5-dichlorophenyl)-2-methoxy-7-methylimidazo[5,1-c]pyrido[2,3-e][1,2,4]triazine] |  | 
24 | 62.9 | 86.9 | COc1ccc2nnc3c(C)nc(-c4cc(Cl)ccc4OC)n3c2n1 [Example 98, 9-(5-chloro-2-methoxyphenyl)-2-methoxy-7-methylimidazo[5,1-c]pyrido[2,3-e][1,2,4]triazine] |  | 
25 | 15.8 | 46.1 | COc1ccc2nnc3c(C)nc(-c4ccccc4C)n3c2n1 [Example 101, 2-methoxy-7-methyl-9-o-tolylimidazo[5,1-c]pyrido[2,3-e][1,2,4]triazine] |  | 
26 | 806 | 1410 | COc1ccc2nnc3c(C)nc(-c4ccccc4C(N)=O)n3c2n1 [Example 103, 2-(2-methoxy-7-methylimidazo[5,1-c]pyrido[2,3-e][1,2,4]triazin-9-yl)benzamide] |  | 
27 | 61.7 | 817 | COc1ccc2nnc3c(C)nc(-c4ccccc4Oc4ccccc4)n3c2n1 [Example 105, 8-Methoxy-3-methyl-1-(2-phenoxy-phenyl)-imidazo[5,1-c]pyrido[2,3-e][1,2,4]triazine] |  | 
28 | 171 | 3.01 | COc1ccnc2c1nnc1c(C)nc(-c3cc(Cl)ccc3Cl)n12 [Example 113, 9-(2,5-dichlorophenyl)-4-methoxy-7-methylimidazo[5,1-c]pyrido[2,3-e][1,2,4]triazine] |  | 
